The results in this text go back to ChEMBL document CHEMBL1136031, “8-Aryl xanthines potent inhibitors of phosphodiesterase 5” (Bioorg Med Chem Lett, 2002).

A value given as a limit tells only on which side of the number the result lay.

For experiment [1], the target named is Phosphodiesterase 6. Description: Inhibitory concentration against bovine retina phosphodiesterase 6 activity. Format: tissue-based.
Experiment [2] can be described thus: Ratio of IC50 against human platelet PDE5 to that against bovine retina PDE6.
Experiment [3] deals with cGMP-specific 3',5'-cyclic phosphodiesterase (Homo sapiens, UniProt O76074). Description: Inhibitory activity against human platelet Phosphodiesterase 5 (PDE5).

On to `CCOc1ccc(S(=O)(=O)N2CCN(CCN(C)C)CC2)cc1-c1nc2c(=O)n(C)c(=O)n(CC(C)C)c2[nH]1`, for which the IC50 in experiment [1] amounted to 146 nM. Also, the Ratio in experiment [2] amounted to 2.5. `COCCOc1ccccc1-c1nc2c([nH]1)c(=O)n(C)c(=O)n2CC(C)C` displayed a half-maximal inhibitory concentration (IC50) in experiment [3] of 1500 nM. In experiment [3], `CC(C)Cn1c(=O)n(C)c(=O)c2[nH]c(-c3ccccc3N(C)C)nc21` had an IC50 of more than 10000 nM. Take `CCCn1c(=O)n(C)c(=O)c2[nH]c(-c3cc(S(=O)(=O)N4CCN(C)CC4)ccc3OCC)nc21`: the figures for the IC50 in experiment [3] and in experiment [1] were 100 nM and 345 nM, respectively. As to `CCOc1ccc(S(=O)(=O)N2CCN(CC)CC2)cc1-c1nc2c(=O)n(C)c(=O)n(CC(C)C)c2[nH]1`, the IC50 in experiment [1] amounted to 203 nM. Further, in experiment [2], the Ratio turned out to be 7.5. For `CC(C)Cn1c(=O)n(C)c(=O)c2[nH]c(-c3ccccc3)nc21`, the IC50 in experiment [3] is more than 10000 nM. The same measure, in the same setting: in the case of `CC(C)Cn1c(=O)n(C)c(=O)c2[nH]c(-c3ccccc3O)nc21` it was more than 10000 nM; in that of `CCOc1ccc(S(=O)(=O)N2CCN(CC)CC2)cc1-c1nc2c([nH]1)c(=O)n(C)c(=O)n2CC(C)C`, 26 nM; in that of `CCOc1ccc(S(=O)(=O)N2CCN(C)CC2)cc1-c1nc2c([nH]1)c(=O)[nH]c(=O)n2C`, more than 10000 nM. Turning to `CC(C)COc1ccc(S(=O)(=O)N2CCN(C)CC2)cc1-c1nc2c(=O)n(C)c(=O)n(CC(C)C)c2[nH]1`, the IC50 in experiment [1] is 102 nM. Besides, in experiment [2], the Ratio was 1.1. Regarding `CCCOc1ccc(S(N)(=O)=O)cc1-c1nc2c([nH]1)c(=O)n(C)c(=O)n2CC(C)C`, in experiment [3], the IC50 was 5 nM. Still for that read-out and setting: the result for `CCOc1ccc(S(=O)(=O)N2CCN(C)CC2)cc1-c1nc2c(=O)n(C)c(=O)n(CC3CCCCC3)c2[nH]1` reads 160 nM. In turn, `CCCCOc1ccccc1-c1nc2c(=O)n(C)c(=O)n(CC(C)C)c2[nH]1` had a concentration for half-maximal inhibition (IC50) in experiment [1] of 436 nM. In experiment [2], the Ratio was 3.2. In the case of `CCCCOc1ccccc1-c1nc2c([nH]1)c(=O)n(C)c(=O)n2CC(C)C`, half-maximal inhibition in experiment [3] (IC50) was put at 135 nM. Same read-out and setting: in the case of `CCCCCCn1c(=O)n(C)c(=O)c2[nH]c(-c3cc(S(=O)(=O)N4CCN(C)CC4)ccc3OCC)nc21` it was 130 nM. Take `CCOc1ccc(S(=O)(=O)N2CCN(CCO)CC2)cc1-c1nc2c(=O)n(C)c(=O)n(CC(C)C)c2[nH]1`: in experiment [1], the IC50 turned out to be 68 nM. Moreover, the Ratio in experiment [2] was 3.5. `CC(C)COc1ccccc1-c1nc2c([nH]1)c(=O)n(C)c(=O)n2CC(C)C` had a 50% inhibitory concentration (IC50) in experiment [3] of 105 nM. Turning to `CCCOc1ccc(S(=O)(=O)N2CCN(CCOC)CC2)cc1-c1nc2c([nH]1)c(=O)n(C)c(=O)n2CC(C)C`, the IC50 in experiment [3] came to 12 nM. `CCCOc1ccc(S(N)(=O)=O)cc1-c1nc2c(=O)n(C)c(=O)n(CC(C)C)c2[nH]1`: in experiment [1], the IC50 came out at 16 nM. Besides, the Ratio in experiment [2] was 3.

In experiment [3], `CC(C)COc1ccc(S(=O)(=O)N2CCN(C)CC2)cc1-c1nc2c([nH]1)c(=O)n(C)c(=O)n2CC(C)C` came in with a 50% inhibitory concentration (IC50) of 93 nM.

`CC(C)Cn1c(=O)n(C)c(=O)c2[nH]c(-c3ccccc3F)nc21` gave a concentration for half-maximal inhibition (IC50) in experiment [3] of more than 10000 nM. As to `CCOc1ccc(S(=O)(=O)N2CCN(CCO)CC2)cc1-c1nc2c([nH]1)c(=O)n(C)c(=O)n2CC(C)C`, in experiment [3], the IC50 worked out at 19 nM. Still for that read-out and setting: in the case of `CCOc1ccc(S(=O)(=O)N2CCN(CCN(C)C)CC2)cc1-c1nc2c([nH]1)c(=O)n(C)c(=O)n2CC(C)C` it was 63 nM; in that of `CCCCCOc1ccccc1-c1nc2c([nH]1)c(=O)n(C)c(=O)n2CC(C)C`, 551 nM; in that of `CC(C)Cn1c(=O)n(C)c(=O)c2[nH]c(-c3ccccc3OCc3ccccc3)nc21`, more than 10000 nM. Still for that read-out and setting: the result for `CCCOc1ccc(S(=O)(=O)N2CCN(CCN(C)C)CC2)cc1-c1nc2c([nH]1)c(=O)n(C)c(=O)n2CC(C)C` reads 24 nM; that for `CCCOc1ccc(S(=O)(=O)N2CCN(CC)CC2)cc1-c1nc2c([nH]1)c(=O)n(C)c(=O)n2CC(C)C`, 5.5 nM. On the same count and under the same terms, the result for `CSc1ccccc1-c1nc2c(=O)n(C)c(=O)n(CC(C)C)c2[nH]1` reads 5420 nM; that for `CNc1ccccc1-c1nc2c([nH]1)c(=O)n(C)c(=O)n2CC(C)C`, more than 10000 nM.

The IC50 is the concentration needed to halve the response being measured. Lower therefore signals greater potency.
